Laboratory results as given in patent publication US8815953B2, “Formulations of vitamin K analogs for topical use” (Spectrum Pharmaceuticals, Inc., priority 2008, dated 2014).

How the values were obtained:
[1] = tested on: EGFR and other growth factor-related phosphatase; conditions: cited from earlier work
[2] = tested on: EGFR-mediated signaling; conditions: topical application, secondary to systemic erlotinib and cetuximab; cited from earlier work
[3] = Estimated solubility of menadione in single solvents; format: physicochemical
Protocol: This study focused on evaluating the solubility properties of menadione in hydrophilic and lipophilic excipients used in topical pharmaceutical products. Initially, solubility studies were conducted in single solvents.

[4] = In vitro percutaneous absorption of (14C)-Menadione Study #2, abraded skin; format: in vitro ADME, human; conditions: abraded skin versus normal skin
Protocol: Percutaneous absorption of (^14C)-Menadione was also evaluated using abraded human skin in the lead formulation at 0.05, 0.1, and 0.2% Menadione and the backup formulation at 0.2% Menadione. Abraded skin was evaluated as a possible simulation of the type of broken and/or compromised skin that may be present in the case of a skin rash caused by an EGFR inhibitor. The respective skin permeation values are presented in: Table 18.

[5] = Menadione compatibility with single solvent systems (1% w/w solutions, 1 month storage); format: physicochemical
Protocol: Based on the single solvent solubility data, a menadione compatibility study with selected solvents was conducted. Solutions containing 1% w/w of menadione were prepared, packaged in borosilicate clear glass vials, wrapped in aluminum foil and stored at 5° C. (dark), 25° C. (dark), and 40° C. (dark) for a period of 1 month. The physico-chemical properties of the 1% menadione single solvent solutions are presented in: Table 2.

## CC1=CC(=O)c2ccccc2C1=O [Menadione, 2-methyl-1,4-naphthoquinone]
[1]
  EGF activating activity: direct EGF activating activity
  EGFR and other growth factor-related phosphatase inhibitory activity: inhibitory activity
[2]
  EGFR-mediated signaling in human skin: restore EGFR-mediated signaling
[3]; in Benzyl Alcohol
  Estimated Solubility: Greater than 10% w/w
[3]; in Dimethyl Isosorbide
  Estimated Solubility: Greater than 10% w/w
[3]; in Mineral Oil
  Estimated Solubility: Less than 0.1% w/w
[3]; in Polyethylene Glycol 400
  Estimated Solubility: Greater than 2% w/w
[3]; in Propylene Glycol
  Estimated Solubility: Less than 1% w/w
[3]; in Purified Water
  Estimated Solubility: Less than 0.04% w/w
[4]
  Epidermal levels of the drug: lower
[5]; caprylic/capric triglyceride, diethyl sebacate, diisopropyl adipate, isopropyl myristate, 1 month at 5, 25, 40° C. dark
  Compatibility of menadione with solvent (physical appearance and potency by HPLC): compatible
[5]; dimethyl isosorbide, transcutol and polyethylene glycol 400, all conditions evaluated
  Compatibility of menadione with solvent (discoloration): signs of incompatibility
